Reference: ChEMBL document CHEMBL4507276 (2021)

Legend:
[1] = target: Atypical kinase COQ8B, mitochondrial (Homo sapiens) (UniProt Q96D53); conditions: Compound concentration 1000.0 nM
[2] = target: Melanocortin receptor 3 (Homo sapiens) (UniProt P41968); assay: MC3H_AGON Cerep selectivity data (BI); conditions: filed as agonist, Compound concentration 20.0 uM
[3] = target: Phosphatidylinositol 4-kinase beta (Homo sapiens) (UniProt Q9UBF8); assay: PI4KB Invitrogen selectivity data (BI); conditions: Compound concentration 3.0 uM
[4] = target: AMP-activated protein kinase (AMPK) alpha-1/beta-1/gamma-1 (Homo sapiens) (UniProt P54619+Q9Y478+Q13131); assay: AMPK A1B1G1 Invitrogen selectivity data (BI); format: protein-complex assay; conditions: Compound concentration 3.0 uM
[5] = target: Epidermal growth factor receptor (Homo sapiens) (UniProt P00533); assay: EGF/HU Eurofins-Panlabs selectivity data (BI); conditions: Compound concentration 10.0 uM
[6] = target: Serine/threonine-protein kinase MARK2 (Homo sapiens) (UniProt Q7KZI7); assay: MARK2 Invitrogen selectivity data (BI); conditions: Compound concentration 3.0 uM
[7] = target: Tyrosine-protein kinase Lyn (Homo sapiens) (UniProt P07948); assay: LYNAKINASE(H) Cerep selectivity data (BI); conditions: Compound concentration 20.0 uM
[8] = target: Leukotriene B4 receptor 1 (Homo sapiens) (UniProt Q15722); assay: BLT1/H Cerep selectivity data (BI); conditions: Compound concentration 20.0 uM
[9] = target: Histamine H1 receptor (Homo sapiens) (UniProt P35367); assay: H1/PYRIL/HS Cerep selectivity data (BI); conditions: Compound concentration 20.0 uM
[10] = target: T1, Testis-specific serine/threonine-protein kinase 3 (Homo sapiens) (UniProt Q96PN8); assay: STK22D Invitrogen selectivity data (BI); conditions: Compound concentration 3.0 uM
T1 sequence (whole entry): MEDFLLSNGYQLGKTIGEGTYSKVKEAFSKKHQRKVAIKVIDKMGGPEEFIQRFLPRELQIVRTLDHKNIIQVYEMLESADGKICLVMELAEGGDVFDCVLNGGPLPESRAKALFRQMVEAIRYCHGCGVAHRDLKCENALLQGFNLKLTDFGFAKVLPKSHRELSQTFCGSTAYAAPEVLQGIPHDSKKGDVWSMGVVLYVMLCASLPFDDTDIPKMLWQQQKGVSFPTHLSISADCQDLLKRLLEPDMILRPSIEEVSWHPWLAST

[11] = target: Sodium-dependent dopamine transporter (Homo sapiens, UniProt Q01959); assay: DATRANS/H Eurofins-Panlabs selectivity data (BI); conditions: Compound concentration 10.0 uM
[12] = target: 5-hydroxytryptamine receptor 1B (Homo sapiens) (UniProt P28222); conditions: Compound concentration 10.0 uM
[13] = target: Arachidonate 5-lipoxygenase-activating protein (Homo sapiens, UniProt P20292); assay: Functional inhibition in mouse whole blood; format: tissue-based; conditions: target entry is the homologue from another species
[14] = system: Epidermal growth factor receptor (Homo sapiens), P00533 [L858R]; assay: EGFR L858R Invitrogen selectivity data (BI); conditions: Compound concentration 3.0 uM
[15] = target: Substance-P receptor (Homo sapiens) (UniProt P25103); assay: NK1/HUM Cerep selectivity data (BI); conditions: Compound concentration 20.0 uM
[16] = target: Dual specificity protein kinase CLK4 (Homo sapiens) (UniProt Q9HAZ1); assay: CLK4 Invitrogen selectivity data (BI); conditions: Compound concentration 3.0 uM
[17] = target: Glutamate receptor ionotropic, NMDA 2A (Rattus norvegicus) (UniProt Q00959); assay: NMDA/R Cerep selectivity data (BI); conditions: Compound concentration 20.0 uM
[18] = target: C-C chemokine receptor type 2 (Homo sapiens) (UniProt P41597); assay: CCR2/H AG Cerep selectivity data (BI); conditions: filed as agonist, Compound concentration 20.0 uM
[19] = target: Cyclin-dependent kinase 2/cyclin A (Homo sapiens) (UniProt P24941+P20248+P78396); assay: CDK2(CYCA)_CE Cerep selectivity data (BI); format: protein-complex assay; conditions: Compound concentration 20.0 uM
[20] = target: Type-2 angiotensin II receptor (Homo sapiens) (UniProt P50052); assay: AT2/H Cerep selectivity data (BI); conditions: Compound concentration 20.0 uM
[21] = target: Casein kinase II subunit alpha (Homo sapiens) (UniProt P68400); assay: CSNK2A1 Invitrogen selectivity data (BI); conditions: Compound concentration 3.0 uM
[22] = target: T2, cGMP-dependent protein kinase 2 (Homo sapiens) (UniProt Q13237); assay: PRKG2 Invitrogen selectivity data (BI); conditions: Compound concentration 3.0 uM
T2 sequence (whole entry): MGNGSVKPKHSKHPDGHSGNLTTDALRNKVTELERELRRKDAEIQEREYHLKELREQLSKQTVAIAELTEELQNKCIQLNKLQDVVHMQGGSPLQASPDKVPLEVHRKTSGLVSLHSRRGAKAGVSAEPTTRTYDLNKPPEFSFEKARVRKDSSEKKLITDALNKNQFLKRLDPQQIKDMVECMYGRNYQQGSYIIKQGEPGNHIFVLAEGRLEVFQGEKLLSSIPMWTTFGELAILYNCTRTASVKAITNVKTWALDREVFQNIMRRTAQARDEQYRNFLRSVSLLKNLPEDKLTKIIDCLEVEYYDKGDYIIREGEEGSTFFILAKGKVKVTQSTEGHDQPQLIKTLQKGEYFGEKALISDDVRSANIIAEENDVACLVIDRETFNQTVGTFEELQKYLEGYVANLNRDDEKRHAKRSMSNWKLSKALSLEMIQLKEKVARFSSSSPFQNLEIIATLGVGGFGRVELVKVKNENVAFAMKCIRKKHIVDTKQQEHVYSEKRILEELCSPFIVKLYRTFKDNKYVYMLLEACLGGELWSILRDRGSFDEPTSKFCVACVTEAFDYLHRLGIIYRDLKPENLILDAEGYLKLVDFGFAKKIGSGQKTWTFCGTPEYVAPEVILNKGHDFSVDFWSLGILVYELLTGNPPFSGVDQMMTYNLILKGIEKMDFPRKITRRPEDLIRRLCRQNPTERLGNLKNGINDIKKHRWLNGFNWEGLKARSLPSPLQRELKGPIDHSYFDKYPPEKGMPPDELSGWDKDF

[23] = species: Homo sapiens; assay: MLCK Invitrogen selectivity data (BI); conditions: Compound concentration 3.0 uM
[24] = target: Calcium/calmodulin-dependent protein kinase type II subunit delta (Homo sapiens) (UniProt Q13557); assay: CAMK2D Invitrogen selectivity data (BI); conditions: Compound concentration 3.0 uM
[25] = target: T3, Serine/threonine-protein kinase Sgk3 (Homo sapiens) (UniProt Q96BR1); assay: SGKL Invitrogen selectivity data (BI); conditions: Compound concentration 3.0 uM
T3 sequence (whole entry): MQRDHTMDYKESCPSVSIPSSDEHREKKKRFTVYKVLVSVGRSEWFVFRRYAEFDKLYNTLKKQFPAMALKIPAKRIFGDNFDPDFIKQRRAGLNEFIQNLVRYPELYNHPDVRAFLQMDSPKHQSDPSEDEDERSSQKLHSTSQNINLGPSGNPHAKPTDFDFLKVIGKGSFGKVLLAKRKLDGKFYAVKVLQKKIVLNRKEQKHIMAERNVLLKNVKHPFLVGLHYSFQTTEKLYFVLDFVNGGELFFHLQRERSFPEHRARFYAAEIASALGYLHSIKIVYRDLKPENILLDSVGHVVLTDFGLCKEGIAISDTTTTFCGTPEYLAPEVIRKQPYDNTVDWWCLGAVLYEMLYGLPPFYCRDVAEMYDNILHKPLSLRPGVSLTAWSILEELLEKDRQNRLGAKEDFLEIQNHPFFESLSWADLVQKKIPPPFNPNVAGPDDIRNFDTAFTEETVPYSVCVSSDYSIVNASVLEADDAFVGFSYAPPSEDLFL

C-C chemokine receptor type 2 (Homo sapiens), sequence (P41597 whole entry, looked up): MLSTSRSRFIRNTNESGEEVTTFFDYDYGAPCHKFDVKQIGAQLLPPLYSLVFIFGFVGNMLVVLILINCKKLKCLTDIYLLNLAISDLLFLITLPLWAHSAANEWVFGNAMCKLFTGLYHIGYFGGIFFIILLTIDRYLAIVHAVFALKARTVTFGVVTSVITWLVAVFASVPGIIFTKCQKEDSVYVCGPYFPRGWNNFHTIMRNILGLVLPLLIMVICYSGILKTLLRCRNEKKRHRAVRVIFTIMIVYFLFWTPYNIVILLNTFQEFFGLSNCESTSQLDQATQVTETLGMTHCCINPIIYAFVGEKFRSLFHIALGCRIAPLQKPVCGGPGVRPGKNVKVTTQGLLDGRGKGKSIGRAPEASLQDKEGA
Calcium/calmodulin-dependent protein kinase type II subunit delta (Homo sapiens), sequence (Q13557 whole entry): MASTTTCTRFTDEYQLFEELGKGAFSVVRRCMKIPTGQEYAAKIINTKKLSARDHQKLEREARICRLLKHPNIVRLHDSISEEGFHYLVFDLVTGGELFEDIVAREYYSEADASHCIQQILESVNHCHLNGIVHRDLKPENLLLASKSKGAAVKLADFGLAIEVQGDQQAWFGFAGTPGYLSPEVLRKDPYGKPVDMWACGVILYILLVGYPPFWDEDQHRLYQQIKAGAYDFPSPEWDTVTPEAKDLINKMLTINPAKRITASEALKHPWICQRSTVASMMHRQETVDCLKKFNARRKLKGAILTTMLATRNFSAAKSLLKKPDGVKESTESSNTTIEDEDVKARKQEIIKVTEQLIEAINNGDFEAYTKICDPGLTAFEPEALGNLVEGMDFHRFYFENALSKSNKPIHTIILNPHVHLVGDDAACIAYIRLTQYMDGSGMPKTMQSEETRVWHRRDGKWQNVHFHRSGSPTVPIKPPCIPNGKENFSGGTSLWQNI
Melanocortin receptor 3 (Homo sapiens), sequence (P41968 whole entry): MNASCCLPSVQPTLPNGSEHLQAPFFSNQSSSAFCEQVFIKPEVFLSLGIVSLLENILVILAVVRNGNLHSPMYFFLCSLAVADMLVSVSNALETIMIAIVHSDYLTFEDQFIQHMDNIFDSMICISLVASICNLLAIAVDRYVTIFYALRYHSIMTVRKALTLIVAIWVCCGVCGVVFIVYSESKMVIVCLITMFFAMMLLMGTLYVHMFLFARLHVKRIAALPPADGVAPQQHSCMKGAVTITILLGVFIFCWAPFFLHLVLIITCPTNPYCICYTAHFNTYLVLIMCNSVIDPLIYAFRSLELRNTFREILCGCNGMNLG
Phosphatidylinositol 4-kinase beta (Homo sapiens), sequence (Q9UBF8 2-816 limits assumed): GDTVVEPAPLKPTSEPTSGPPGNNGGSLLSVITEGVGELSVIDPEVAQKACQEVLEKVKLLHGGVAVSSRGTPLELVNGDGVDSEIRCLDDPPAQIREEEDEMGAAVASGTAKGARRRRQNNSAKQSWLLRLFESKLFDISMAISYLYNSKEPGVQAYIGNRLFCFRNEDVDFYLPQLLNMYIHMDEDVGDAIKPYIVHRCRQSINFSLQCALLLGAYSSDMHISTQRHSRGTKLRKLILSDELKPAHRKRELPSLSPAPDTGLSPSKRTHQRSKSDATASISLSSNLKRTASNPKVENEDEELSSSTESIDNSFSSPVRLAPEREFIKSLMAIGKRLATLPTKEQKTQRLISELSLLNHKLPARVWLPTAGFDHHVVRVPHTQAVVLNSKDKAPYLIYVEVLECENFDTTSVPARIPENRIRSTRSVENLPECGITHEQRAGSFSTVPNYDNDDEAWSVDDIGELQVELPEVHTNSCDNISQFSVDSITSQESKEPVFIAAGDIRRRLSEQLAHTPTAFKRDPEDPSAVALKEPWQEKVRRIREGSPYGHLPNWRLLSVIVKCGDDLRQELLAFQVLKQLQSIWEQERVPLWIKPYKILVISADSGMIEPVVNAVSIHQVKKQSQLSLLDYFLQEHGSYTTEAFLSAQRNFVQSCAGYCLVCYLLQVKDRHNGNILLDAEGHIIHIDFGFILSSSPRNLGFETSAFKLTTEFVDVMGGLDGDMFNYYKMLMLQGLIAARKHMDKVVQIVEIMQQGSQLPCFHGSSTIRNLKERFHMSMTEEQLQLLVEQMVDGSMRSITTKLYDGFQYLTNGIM
Histamine H1 receptor (Homo sapiens), sequence (P35367 whole entry): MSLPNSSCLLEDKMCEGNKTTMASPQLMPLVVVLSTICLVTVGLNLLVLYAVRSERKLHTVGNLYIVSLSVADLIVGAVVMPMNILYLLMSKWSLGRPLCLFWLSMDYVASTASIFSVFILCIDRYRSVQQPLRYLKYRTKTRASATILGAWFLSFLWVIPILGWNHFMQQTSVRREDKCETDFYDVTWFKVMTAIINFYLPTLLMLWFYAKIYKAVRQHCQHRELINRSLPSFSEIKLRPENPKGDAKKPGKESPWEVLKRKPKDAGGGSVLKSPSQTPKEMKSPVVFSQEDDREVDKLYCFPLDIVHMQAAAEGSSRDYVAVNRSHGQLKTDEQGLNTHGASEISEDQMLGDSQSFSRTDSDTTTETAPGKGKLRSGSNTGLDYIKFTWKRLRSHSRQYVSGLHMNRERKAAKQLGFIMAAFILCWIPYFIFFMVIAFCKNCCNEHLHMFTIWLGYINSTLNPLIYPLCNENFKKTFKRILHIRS
Serine/threonine-protein kinase MARK2 (Homo sapiens), sequence (Q7KZI7 whole entry): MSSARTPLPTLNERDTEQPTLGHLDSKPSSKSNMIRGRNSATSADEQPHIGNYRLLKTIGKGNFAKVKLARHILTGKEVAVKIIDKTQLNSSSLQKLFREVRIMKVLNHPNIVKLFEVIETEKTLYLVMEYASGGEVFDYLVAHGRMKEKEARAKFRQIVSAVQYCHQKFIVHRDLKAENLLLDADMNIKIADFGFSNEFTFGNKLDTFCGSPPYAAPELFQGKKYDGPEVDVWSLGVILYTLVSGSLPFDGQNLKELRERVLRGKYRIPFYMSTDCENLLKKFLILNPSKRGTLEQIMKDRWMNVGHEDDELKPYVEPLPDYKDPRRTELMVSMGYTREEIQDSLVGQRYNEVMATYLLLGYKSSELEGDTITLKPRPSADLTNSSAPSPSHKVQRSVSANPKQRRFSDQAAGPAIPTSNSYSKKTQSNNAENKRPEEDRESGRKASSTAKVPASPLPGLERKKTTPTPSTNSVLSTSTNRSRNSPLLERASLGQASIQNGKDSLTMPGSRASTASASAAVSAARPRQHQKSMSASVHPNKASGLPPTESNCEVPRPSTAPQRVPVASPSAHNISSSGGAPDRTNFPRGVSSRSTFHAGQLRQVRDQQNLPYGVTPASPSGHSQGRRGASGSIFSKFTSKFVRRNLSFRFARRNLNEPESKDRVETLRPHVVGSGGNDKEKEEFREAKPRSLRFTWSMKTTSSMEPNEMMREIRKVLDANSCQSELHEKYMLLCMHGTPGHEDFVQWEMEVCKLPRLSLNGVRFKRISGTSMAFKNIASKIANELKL
Leukotriene B4 receptor 1 (Homo sapiens), sequence (Q15722 whole entry): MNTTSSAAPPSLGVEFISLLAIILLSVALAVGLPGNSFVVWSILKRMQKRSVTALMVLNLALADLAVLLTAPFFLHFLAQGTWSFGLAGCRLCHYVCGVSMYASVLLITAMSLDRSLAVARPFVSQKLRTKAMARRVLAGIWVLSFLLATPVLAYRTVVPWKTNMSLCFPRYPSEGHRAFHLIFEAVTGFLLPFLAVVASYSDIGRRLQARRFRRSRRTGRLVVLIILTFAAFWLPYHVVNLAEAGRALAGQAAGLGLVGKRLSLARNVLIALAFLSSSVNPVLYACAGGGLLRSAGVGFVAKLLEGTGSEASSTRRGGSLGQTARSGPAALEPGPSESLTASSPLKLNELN
AMP-activated protein kinase (AMPK) alpha-1/beta-1/gamma-1 (Homo sapiens), sequence (P54619 whole entry): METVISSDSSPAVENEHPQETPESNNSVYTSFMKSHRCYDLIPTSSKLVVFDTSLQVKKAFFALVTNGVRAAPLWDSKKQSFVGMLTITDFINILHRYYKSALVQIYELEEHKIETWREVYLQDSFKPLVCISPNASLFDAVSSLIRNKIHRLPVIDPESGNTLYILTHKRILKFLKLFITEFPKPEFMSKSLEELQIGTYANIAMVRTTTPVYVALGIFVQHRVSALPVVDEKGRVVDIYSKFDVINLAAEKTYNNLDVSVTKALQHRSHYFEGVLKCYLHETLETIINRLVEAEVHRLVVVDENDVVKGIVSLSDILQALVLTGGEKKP
AMP-activated protein kinase (AMPK) alpha-1/beta-1/gamma-1 (Homo sapiens), sequence (Q13131 whole entry partner): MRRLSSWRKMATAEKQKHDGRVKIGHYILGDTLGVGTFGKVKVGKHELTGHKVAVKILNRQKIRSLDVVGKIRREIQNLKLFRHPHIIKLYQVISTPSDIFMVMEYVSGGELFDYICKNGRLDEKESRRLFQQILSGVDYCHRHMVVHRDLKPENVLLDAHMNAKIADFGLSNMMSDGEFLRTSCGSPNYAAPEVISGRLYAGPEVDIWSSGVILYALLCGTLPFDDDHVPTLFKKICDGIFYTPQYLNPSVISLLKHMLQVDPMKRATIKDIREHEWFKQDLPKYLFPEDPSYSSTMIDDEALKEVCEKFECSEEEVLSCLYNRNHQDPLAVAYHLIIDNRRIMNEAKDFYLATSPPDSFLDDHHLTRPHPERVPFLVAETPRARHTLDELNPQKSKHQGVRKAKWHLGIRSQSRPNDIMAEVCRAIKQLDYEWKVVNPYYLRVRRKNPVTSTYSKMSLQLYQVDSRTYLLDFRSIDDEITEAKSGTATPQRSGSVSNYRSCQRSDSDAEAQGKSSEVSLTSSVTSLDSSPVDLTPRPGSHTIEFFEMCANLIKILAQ
AMP-activated protein kinase (AMPK) alpha-1/beta-1/gamma-1 (Homo sapiens), sequence (Q9Y478 2-270 partner limits assumed): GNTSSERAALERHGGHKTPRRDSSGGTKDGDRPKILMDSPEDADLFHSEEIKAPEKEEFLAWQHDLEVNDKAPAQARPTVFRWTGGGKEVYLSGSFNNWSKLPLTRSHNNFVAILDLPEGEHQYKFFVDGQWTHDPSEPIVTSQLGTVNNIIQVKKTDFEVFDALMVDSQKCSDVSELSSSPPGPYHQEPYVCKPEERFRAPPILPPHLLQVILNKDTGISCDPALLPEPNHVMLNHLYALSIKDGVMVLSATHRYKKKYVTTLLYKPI
Arachidonate 5-lipoxygenase-activating protein, sequence (P20292 whole entry): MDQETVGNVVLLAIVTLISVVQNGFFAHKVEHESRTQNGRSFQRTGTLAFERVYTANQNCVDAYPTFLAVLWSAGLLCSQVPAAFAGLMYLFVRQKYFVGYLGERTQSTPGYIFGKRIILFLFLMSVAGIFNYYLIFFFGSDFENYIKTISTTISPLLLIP

CN(C)C(=O)Cn1cc(-c2nc(C3(c4ccc(-c5cnc(N)nc5)cc4)CC3)no2)cn1 [BI 0153]
inactive: residual activity [1] 100%

CN(C)C(=O)Cn1cc(-c2nc([C@@](C)(c3ccc(-c4cnc(N)nc4)cc3)C3CC3)no2)cn1 [BI 665915]
inactive: residual activity [2] 94% | residual activity [3] 95% | residual activity [4] 104% | residual activity [5] 103% | residual activity [6] 98.5% | residual activity [7] 87% | residual activity [8] 100% | residual activity [9] 89% | residual activity [10] 96.5% | residual activity [11] 95% | inhibition [12] -3.77% | residual activity [14] 96% | residual activity [15] 95% | residual activity [16] 95% | residual activity [17] 90% | residual activity [18] 109% | residual activity [19] 118% | residual activity [20] 98% | residual activity [21] 97% | residual activity [22] 92.5% | residual activity [23] 98% | residual activity [24] 94.5% | residual activity [25] 101%
4.8 µM: IC50 [13]
